Source: patent publication US9567345B2, “Pharmaceutically active pyrazolo-triazine derivatives” (LEAD DISCOVERY CENTER GMBH, priority 2012, dated 2017)
Like-named read-outs stand apart in the source and are kept apart here.

Tests used:
Assay type in all cases: biochemical
CDK9/Cyclin T1 = CDK9/Cyclin T1 (Homo sapiens, UniProt P50750); assay: CDK9 Enzymatic Activity Assay (Lance Kinase Activity Assay, FRET)
Procedure, shortened: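 CDK9/cyclin T1 phosphorylation of a ULight-MBP peptide was run for 1 h at room temperature in pH 7.5 HEPES buffer with MgCl2, EGTA, DTT and Tween-20. It was followed by 1 h with Eu-anti-phospho-MBP antibody (4 nM) in EDTA detection buffer. TR-FRET loss gave IC50 from 8-point, 1:3 sigmoidal dose-response curves.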

CDK2/CycA = biological target: T1, CDK2/CycA (Homo sapiens, UniProt P24941); assay: CDK2 Enzymatic Activity Assay (Lance Kinase Activity Assay, FRET)
T1 construct: purchased Proqinase
Experimental: This protocol describes how the Lance Kinase Activity Assay was performed to determine IC50 values of compounds of general formula (I) against CDK/Cyclin complexes. The principle behind this enzymatic assay is based upon the phosphorylation of the Ulight-Peptide Substrat. It is detected by using a specific EU-labeled anti-phospho peptide antibody.
Binding of an inhibitor to the kinase prevents phosphorylation of the Ulight-MBP Substrat, resulting in a loss of FRET.
CDK2 Enzymatic Activity Assay
The compounds of general formula (I) exemplary summarized in Table 1 were diluted from a 10 mM DMSO stock solution 1:10 in a total volume of 15 μl DMSO. This compound predilution was then serial diluted 1:3 over 8 steps in DMSO and briefly spun down. Each compound solution was now diluted 1:20 in Enzymatic Buffer (HEPES: 50 mM, pH: 7.5; MgCl2: 10 mM; EGTA: 1 mM; DTT: 2 mM; Tween-20: 0.01%), mixed thoroughly and spun down.
For positive controls, 2 μl of DMSO working solution were mixed with 6 μl CDK2/CycA/substrate working solution and 2 μl ATP working solution. Positive and negative controls were calculated from at least 8 different wells. The 384 well plates were mixed in a Teleshaker plate mixer (Beckman Coulter, Brea, Calif., USA) at 2000 rpm for 40 sec, and incubated for 1 h at room temperature before addition of 10 μl LANCE Detection Buffer (EDTA: […]; Eu-Anti-P-MBP: 4 nM) per well. Plates were mixed in a Teleshaker plate mixer (Beckman Coulter, Brea, Calif., USA) at 2000 rpm for 40 sec, followed by incubation with Detection Buffer for 1 h, and reading. […] IC50 values were determined from the sigmoidal dose response curves with the software Quattro Workflow (Quattro GmbH, Munich, Germany).

CDK7/CycH/Mat1 = CDK7/CycH/Mat1 (Homo sapiens, UniProt P50613); assay: CDK7 Enzymatic Activity Assay (Lance Kinase Activity Assay, FRET)
Procedure, shortened: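 TR-FRET (LANCE) kinase assay: CDK7/CycH/Mat1 phosphorylates Ulight-MBP substrate for 1 h at room temperature in pH 7.5 HEPES buffer; detection 1 h with Eu-labelled anti-phospho antibody plus EDTA.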

[1] = Table 5B, class symbols per IC50 [nM] ranges of b581, read-out: CDK9: Selectivity of CDK7 inhibition over CDK9 inhibition
[2] = Table 5B, class symbols per IC50 [nM] ranges of b581, read-out: CDK2: Selectivity of CDK7 inhibition over CDK2 inhibition
[3] = CDK7/CycH/Mat1, 25 μM ATP final, class ranges, read-out: CDK7: IC50 [nM] for CDK7 inhibition

Chain of CDK9/Cyclin T1 (P50750 whole entry): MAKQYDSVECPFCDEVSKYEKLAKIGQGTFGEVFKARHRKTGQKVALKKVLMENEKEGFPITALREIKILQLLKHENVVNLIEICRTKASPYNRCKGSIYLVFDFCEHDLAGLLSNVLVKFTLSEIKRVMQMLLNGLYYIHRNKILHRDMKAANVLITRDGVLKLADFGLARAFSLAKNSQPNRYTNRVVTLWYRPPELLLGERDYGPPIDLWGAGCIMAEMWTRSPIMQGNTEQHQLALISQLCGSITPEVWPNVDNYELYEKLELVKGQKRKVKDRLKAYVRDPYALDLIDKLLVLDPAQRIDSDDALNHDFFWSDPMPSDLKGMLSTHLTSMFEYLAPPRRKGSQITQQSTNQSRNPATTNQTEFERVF
Chain of CDK9/Cyclin T1 (O60563 whole entry partner): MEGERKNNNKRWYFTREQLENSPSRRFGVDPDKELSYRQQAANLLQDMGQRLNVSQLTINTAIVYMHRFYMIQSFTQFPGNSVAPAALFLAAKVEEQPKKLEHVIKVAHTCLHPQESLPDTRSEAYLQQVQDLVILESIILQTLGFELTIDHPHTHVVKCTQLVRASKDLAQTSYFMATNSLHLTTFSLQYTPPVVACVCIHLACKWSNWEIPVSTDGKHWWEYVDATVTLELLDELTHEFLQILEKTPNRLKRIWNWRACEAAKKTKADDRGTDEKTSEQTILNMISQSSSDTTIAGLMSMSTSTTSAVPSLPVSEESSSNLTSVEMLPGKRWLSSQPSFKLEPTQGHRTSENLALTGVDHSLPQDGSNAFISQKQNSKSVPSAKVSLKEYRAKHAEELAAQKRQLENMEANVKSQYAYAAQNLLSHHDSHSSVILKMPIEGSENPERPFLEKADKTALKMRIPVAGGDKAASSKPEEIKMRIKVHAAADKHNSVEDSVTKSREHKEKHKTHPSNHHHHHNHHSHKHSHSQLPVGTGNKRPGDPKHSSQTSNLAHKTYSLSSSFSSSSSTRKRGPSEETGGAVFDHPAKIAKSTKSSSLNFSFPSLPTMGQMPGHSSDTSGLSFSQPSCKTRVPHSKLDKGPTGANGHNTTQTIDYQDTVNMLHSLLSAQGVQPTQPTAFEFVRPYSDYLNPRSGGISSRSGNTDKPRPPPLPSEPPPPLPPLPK
Chain of CDK7/CycH/Mat1 (P50613 whole entry): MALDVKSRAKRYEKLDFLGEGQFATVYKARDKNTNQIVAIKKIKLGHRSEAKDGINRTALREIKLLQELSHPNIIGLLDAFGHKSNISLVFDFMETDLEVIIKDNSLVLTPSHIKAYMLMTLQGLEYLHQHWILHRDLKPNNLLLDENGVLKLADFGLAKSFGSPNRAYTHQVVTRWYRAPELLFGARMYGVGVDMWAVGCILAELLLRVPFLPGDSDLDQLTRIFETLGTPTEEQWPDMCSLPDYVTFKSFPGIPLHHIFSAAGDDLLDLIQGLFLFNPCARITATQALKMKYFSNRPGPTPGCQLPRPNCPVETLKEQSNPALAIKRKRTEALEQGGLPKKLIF

Molecule `CC(C)c1cnn2c(NCc3ccccc3-c3cccs3)nc(O[C@@H]3CCNC3)nc12` [(VII-13), (R)-8-isopropyl-2-(pyrrolidin-3-yloxy)-N-(2-(thiophen-2-yl)benzyl)pyrazolo[1,5-a][1,3,5]triazin-4-amine] has an IC50 (CDK9/Cyclin T1; [1]) of 500 to 2500 nM, an IC50 (CDK2/CycA; [2]) of 50 to 500 nM and an IC50 (CDK7/CycH/Mat1; [3]) of under 5 nM.

In the case of `CC(C)c1cnn2c(NCc3ccccc3-c3cccs3)nc(OC3CCNCC3)nc12` [(VII-14), 8-isopropyl-2-(piperidin-4-yloxy)-N-(2-(thiophen-2-yl)benzyl)pyrazolo[1,5-a][1,3,5]triazin-4-amine], the IC50 (CDK9/Cyclin T1; [1]) is reported as 500 to 2500 nM, the IC50 (CDK2/CycA; [2]) is reported as 50 to 500 nM and the IC50 (CDK7/CycH/Mat1; [3]) is reported as under 5 nM.

Molecule `CC(C)Oc1ccccc1CNc1nc(O[C@@H]2CCNC2)nc2c(C(C)C)cnn12` [(VII-16), (R)-N-(2-isopropoxybenzyl)-8-isopropyl-2-(pyrrolidin-3-yloxy)pyrazolo[1,5-a][1,3,5]triazin-4-amine] has an IC50 (CDK9/Cyclin T1; [1]) of over 2500 nM, an IC50 (CDK2/CycA; [2]) of 500 to 2500 nM and an IC50 (CDK7/CycH/Mat1; [3]) of under 5 nM.

`CC(C)Oc1ccccc1CNc1nc(O[C@@H]2CCCNC2)nc2c(C(C)C)cnn12` [(VII-18), (R)-N-(2-isopropoxybenzyl)-8-isopropyl-2-(piperidin-3-yloxy)pyrazolo[1,5-a][1,3,5]triazin-4-amine] showed an IC50 (CDK9/Cyclin T1; [1]) of 500 to 2500 nM, an IC50 (CDK2/CycA; [2]) of 50 to 500 nM and an IC50 (CDK7/CycH/Mat1; [3]) of under 5 nM.

Molecule `CC(C)c1cnn2c(NCc3ccccc3-n3cncn3)nc(O[C@@H]3CCNC3)nc12` [(VII-21), (R)-N-(2-(1H-1,2,4-triazol-1-yl)benzyl)-8-isopropyl-2-(pyrrolidin-3-yloxy)pyrazolo[1,5-a][1,3,5]triazin-4-amine] has an IC50 (CDK9/Cyclin T1; [1]) of 500 to 2500 nM, an IC50 (CDK2/CycA; [2]) of under 50 nM and an IC50 (CDK7/CycH/Mat1; [3]) of under 5 nM.

`CC(C)c1cnn2c(NCc3ccccc3-n3cncn3)nc(OC3CCNCC3)nc12` [(VII-22), N-(2-(1H-1,2,4-triazol-1-yl)benzyl)-8-isopropyl-2-(piperidin-4-yloxy)pyrazolo[1,5-a][1,3,5]triazin-4-amine] showed an IC50 (CDK9/Cyclin T1; [1]) of 500 to 2500 nM, an IC50 (CDK2/CycA; [2]) of 50 to 500 nM and an IC50 (CDK7/CycH/Mat1; [3]) of under 5 nM.

For `CC(C)c1cnn2c(NCc3ccccc3-n3ccnc3)nc(O[C@@H]3CCCNC3)nc12` [(VII-26), (R)-N-(2-(1H-imidazol-1-yl)benzyl)-8-isopropyl-2-(piperidin-3-yloxy)pyrazolo[1,5-a][1,3,5]triazin-4-amine], the IC50 (CDK9/Cyclin T1; [1]) was 50 to 500 nM, the IC50 (CDK2/CycA; [2]) was 50 to 500 nM and the IC50 (CDK7/CycH/Mat1; [3]) was under 5 nM.

In the case of `CC(C)c1cnn2c(NCc3ccccc3-n3ccnc3)nc(O[C@@H]3CCNC3)nc12` [(VII-27), (R)-N-(2-(1H-imidazol-1-yl)benzyl)-8-isopropyl-2-(pyrrolidin-3-yloxy)pyrazolo[1,5-a][1,3,5]triazin-4-amine], the IC50 (CDK9/Cyclin T1; [1]) is reported as 50 to 500 nM, the IC50 (CDK2/CycA; [2]) is reported as 50 to 500 nM and the IC50 (CDK7/CycH/Mat1; [3]) is reported as under 5 nM.

`CC(C)c1cnn2c(NCc3ccccc3-c3nnnn3C)nc(O[C@@H]3CCCNC3)nc12` [(VII-29), (R)-8-isopropyl-N-(2-(1-methyl-1H-tetrazol-5-yl)benzyl)-2-(piperidin-3-yloxy)pyrazolo[1,5-a][1,3,5]triazin-4-amine] was tested, and the IC50 (CDK9/Cyclin T1; [1]) was over 2500 nM, the “Selectivity CDK7 over CDK9” value (CDK9/Cyclin T1; Table 6) was 3255 fold and the IC50 (CDK2/CycA; [2]) was 50 to 500 nM. The “Selectivity CDK7 over CDK2” value (CDK2/CycA; Table 6) was 394 fold, the IC50 (CDK7/CycH/Mat1; [3]) was under 5 nM and the IC50 (CDK7/CycH/Mat1; Table 6, read-out: IC50 CDK7) was under 5 nM.

With `CC(C)c1cnn2c(NCc3cccc4c3ccc[n+]4[O-])nc(O[C@@H]3CCCNC3)nc12` [(VII-30), (R)-5-(((8-isopropyl-2-(piperidin-3-yloxy)pyrazolo[1,5-a][1,3,5]triazin-4-yl)amino)methyl)quinoline 1-oxide] the IC50 (CDK9/Cyclin T1; [1]) was under 50 nM, the IC50 (CDK2/CycA; [2]) was 500 to 2500 nM and the IC50 (CDK7/CycH/Mat1; [3]) was under 5 nM.

`CC(C)c1cnn2c(NCc3cccc4ccncc34)nc(O[C@@H]3CCCNC3)nc12` [(VII-31), (R)-8-isopropyl-N-(isoquinolin-8-ylmethyl)-2-(piperidin-3-yloxy)pyrazolo[1,5-a][1,3,5]triazin-4-amine] was tested, and the IC50 (CDK9/Cyclin T1; [1]) was under 50 nM, the IC50 (CDK2/CycA; [2]) was 50 to 500 nM and the IC50 (CDK7/CycH/Mat1; [3]) was under 5 nM.

For `CC(C)c1cnn2c(NCc3cccc4cc[n+]([O-])cc34)nc(O[C@@H]3CCCNC3)nc12` [(VII-32), (R)-8-(((8-isopropyl-2-(piperidin-3-yloxy)pyrazolo[1,5-a][1,3,5]triazin-4-yl)amino)methyl)isoquinoline 2-oxide], the IC50 (CDK9/Cyclin T1; [1]) was 50 to 500 nM, the IC50 (CDK2/CycA; [2]) was 50 to 500 nM and the IC50 (CDK7/CycH/Mat1; [3]) was under 5 nM.

With `CC(C)c1cnn2c(NCc3cccc4c3cnn4C)nc(O[C@@H]3CCCNC3)nc12` [(VII-33), (R)-8-isopropyl-N-((1-methyl-1H-indazol-4-yl)methyl)-2-(piperidin-3-yloxy)pyrazolo[1,5-a][1,3,5]triazin-4-amine] the IC50 (CDK9/Cyclin T1; [1]) was under 50 nM, the IC50 (CDK2/CycA; [2]) was under 50 nM and the IC50 (CDK7/CycH/Mat1; [3]) was under 5 nM.

Molecule `CC(C)c1cnn2c(NCc3ccccc3-c3ccccn3)nc(O[C@@H]3CCCNC3)nc12` [(VII-34), (R)-8-isopropyl-2-(piperidin-3-yloxy)-N-(2-(pyridin-2-yl)benzyl)pyrazolo[1,5-a][1,3,5]triazin-4-amine] has an IC50 (CDK9/Cyclin T1; [1]) of 500 to 2500 nM, an IC50 (CDK2/CycA; [2]) of 50 to 500 nM and an IC50 (CDK7/CycH/Mat1; [3]) of under 5 nM.

With `CC(C)c1cnn2c(NCc3cccc4cccnc34)nc(O[C@@H]3CCCNC3)nc12` [(VII-35), (R)-8-isopropyl-2-(piperidin-3-yloxy)-N-(quinolin-8-ylmethyl)pyrazolo[1,5-a][1,3,5]triazin-4-amine] the IC50 (CDK9/Cyclin T1; [1]) was 50 to 500 nM, the IC50 (CDK2/CycA; [2]) was 50 to 500 nM and the IC50 (CDK7/CycH/Mat1; [3]) was under 5 nM.

For `CC(C)c1cnn2c(NCc3cccc4[nH]ncc34)nc(O[C@@H]3CCCNC3)nc12` [(VII-36), (R)-N-((1H-indazol-4-yl)methyl)-8-isopropyl-2-(piperidin-3-yloxy)pyrazolo[1,5-a][1,3,5]triazin-4-amine], the IC50 (CDK9/Cyclin T1; [1]) was under 50 nM, the IC50 (CDK2/CycA; [2]) was under 50 nM and the IC50 (CDK7/CycH/Mat1; [3]) was under 5 nM.

In the case of `CC(C)c1cnn2c(NCc3ccccc3-c3nnn(C)n3)nc(O[C@@H]3CCCNC3)nc12` [(VII-37), (R)-8-isopropyl-N-(2-(2-methyl-2H-tetrazol-5-yl)benzyl)-2-(piperidin-3-yloxy)pyrazolo[1,5-a][1,3,5]triazin-4-amine], the IC50 (CDK9/Cyclin T1; [1]) is reported as over 2500 nM, the IC50 (CDK2/CycA; [2]) is reported as under 50 nM and the IC50 (CDK7/CycH/Mat1; [3]) is reported as under 5 nM.

`CC(C)c1cnn2c(NCc3ccccc3S(=O)(=O)N(C)C)nc(O[C@@H]3CCCNC3)nc12` [(VII-38), (R)-2-(((8-isopropyl-2-(piperidin-3-yloxy)pyrazolo[1,5-a][1,3,5]triazin-4-yl)amino)methyl)-N,N-dimethylbenzenesulfonamide] was tested, and the IC50 (CDK9/Cyclin T1; [1]) was 500 to 2500 nM, the “Selectivity CDK7 over CDK9” value (CDK9/Cyclin T1; Table 7) was 2733 fold and the IC50 (CDK9/Cyclin T1; Table 7, read-out: IC50 CDK9) was 500 to 2500 nM. The IC50 (CDK2/CycA; [2]) was 50 to 500 nM, the “Selectivity CDK7 over CDK2” value (CDK2/CycA; Table 7) was 342 fold and the IC50 (CDK2/CycA; Table 7, read-out: IC50 CDK2) was 50 to 500 nM. For the same molecule, the IC50 (CDK7/CycH/Mat1; [3]) was under 5 nM and the IC50 (CDK7/CycH/Mat1; Table 7, read-out: IC50 CDK7) was under 5 nM.

Molecule `CC(C)c1cnn2c(NCc3ccccc3N3CCCC3=O)nc(O[C@@H]3CCCNC3)nc12` [(VII-39), (R)-1-(2-(((8-isopropyl-2-(piperidin-3-yloxy)pyrazolo[1,5-a][1,3,5]triazin-4-yl)amino)methyl)phenyl)pyrrolidin-2-one] has an IC50 (CDK9/Cyclin T1; [1]) of over 2500 nM, an IC50 (CDK2/CycA; [2]) of 50 to 500 nM and an IC50 (CDK7/CycH/Mat1; [3]) of under 5 nM.

`CC(C)c1cnn2c(NCc3cc(F)ccc3-n3cccn3)nc(O[C@@H]3CCCNC3)nc12` [(VII-41), (R)-N-(5-fluoro-2-(1H-pyrazol-1-yl)benzyl)-8-isopropyl-2-(piperidin-3-yloxy)pyrazolo[1,5-a][1,3,5]triazin-4-amine] gave an IC50 (CDK9/Cyclin T1; [1]) of 50 to 500 nM, an IC50 (CDK2/CycA; [2]) of under 50 nM and an IC50 (CDK7/CycH/Mat1; [3]) of under 5 nM.

Work on `CC(C)c1cnn2c(NCc3cccc(F)c3-n3cccn3)nc(O[C@@H]3CCCNC3)nc12` [(VII-42), (R)-N-(3-fluoro-2-(1H-pyrazol-1-yl)benzyl)-8-isopropyl-2-(piperidin-3-yloxy)pyrazolo[1,5-a][1,3,5]triazin-4-amine] yielded an IC50 (CDK9/Cyclin T1; [1]) of 50 to 500 nM, an IC50 (CDK2/CycA; [2]) of under 50 nM and an IC50 (CDK7/CycH/Mat1; [3]) of under 5 nM.
